Measurements from the NIST ThermoML archive (doi:10.1021/je8009336).
± gives the expanded uncertainty stated by the source.

Experiments:
[1] = refractive index (Na D-line) (dimensionless); details: 101.33 kPa, Liquid, Standard Abbe refractometry
[2] = Liquid; for mass density: Vibrating tube method; for speed of sound: Vibrating Tube Densimeter
[3] = xn = mol fraction of the nth substance listed; details: 313.15 K, 101 kPa, Liquid; for speed of sound: Vibrating Tube Densimeter; for mass density: Vibrating tube method
[4] = refractive index (Na D-line) (dimensionless); xn = mol fraction of the nth substance listed; details: 313.15 K, 101 kPa, Liquid, Standard Abbe refractometry

CCc1ccccc1 [ethylbenzene]
[1]
Details | refractive index
298.15 K | 1.49304 ± 0.00068
313.15 K | 1.48538 ± 0.00068

[2]
Details | mass density, 298.15 K [kg/m3] | mass density, 313.15 K [kg/m3] | speed of sound, 313.15 K [m/s]
101 kPa | – | 849.3 ± 0.2 | 1257.3 ± 2.1
101.33 kPa | 862.5 ± 0.2 | – | –

CCc1ccccc1 [ethylbenzene] + C1CCCC1
x2 = 0
Details | mass density [kg/m3] | refractive index | speed of sound [m/s]
[3] | 849.3 ± 0.2 | – | 1257.3 ± 2.1
[4] | – | 1.48538 ± 0.00068 | –

CCc1ccccc1 [ethylbenzene] + C1CCCCC1
Details | mass density, [3] [kg/m3] | refractive index, [4] | speed of sound, [3] [m/s]
x2 = 0 | 849.3 ± 0.2 | 1.48538 ± 0.00068 | 1257.3 ± 2.1
x2 = 0.0515 | 844.7 ± 0.2 | 1.4814 ± 0.00068 | 1251.8 ± 2.1
x2 = 0.0976 | 840.5 ± 0.2 | 1.47828 ± 0.00068 | 1247 ± 2.1
x2 = 0.2494 | 826.7 ± 0.2 | 1.46788 ± 0.00068 | 1231.8 ± 2.1
x2 = 0.3647 | 816.2 ± 0.2 | 1.45999 ± 0.00068 | 1221.3 ± 2.1
x2 = 0.3855 | 814.3 ± 0.2 | 1.45831 ± 0.00068 | 1219.3 ± 2.1
x2 = 0.5028 | 803.6 ± 0.2 | 1.45026 ± 0.00068 | 1209.4 ± 2.1
x2 = 0.6009 | 794.6 ± 0.2 | 1.44349 ± 0.00068 | 1201.9 ± 2.1
x2 = 0.7005 | 785.6 ± 0.2 | 1.43614 ± 0.00068 | 1195 ± 2.1
x2 = 0.7976 | 776.9 ± 0.2 | 1.42925 ± 0.00068 | 1189.2 ± 2.1
x2 = 0.9017 | 768 ± 0.2 | 1.42208 ± 0.00068 | 1184.5 ± 2.1
x2 = 0.9504 | 763.8 ± 0.2 | 1.41865 ± 0.00068 | 1182.8 ± 2.1

CCc1ccccc1 [ethylbenzene] + CC1CCCCC1
x2 = 0
Details | mass density [kg/m3] | refractive index | speed of sound [m/s]
[3] | 849.3 ± 0.2 | – | 1257.3 ± 2.1
[4] | – | 1.48538 ± 0.00068 | –

CC1CCCCC1 [methylcyclohexane]
[1]
Details | refractive index
298.15 K | 1.42053 ± 0.0007
313.15 K | 1.41272 ± 0.0007

[2]
Details | mass density, 298.15 K [kg/m3] | mass density, 313.15 K [kg/m3] | speed of sound, 313.15 K [m/s]
101 kPa | – | 752 ± 0.3 | 1149.6 ± 2.3
101.33 kPa | 764.9 ± 0.3 | – | –

CC1CCCCC1 [methylcyclohexane] + CCc1ccccc1
Details | mass density, [3] [kg/m3] | refractive index, [4] | speed of sound, [3] [m/s]
x1 = 0.0509 | 843.8 ± 0.2 | 1.48108 ± 0.00068 | 1249.9 ± 2.1
x1 = 0.0975 | 838.9 ± 0.2 | 1.4774 ± 0.00068 | 1243.4 ± 2.1
x1 = 0.1957 | 828.6 ± 0.2 | 1.46965 ± 0.00068 | 1230.3 ± 2.1
x1 = 0.2794 | 820 ± 0.2 | 1.46339 ± 0.00068 | 1219.8 ± 2.1
x1 = 0.4006 | 807.9 ± 0.3 | 1.45428 ± 0.00068 | 1205.4 ± 2.1
x1 = 0.4962 | 798.4 ± 0.3 | 1.44736 ± 0.00069 | 1194.9 ± 2.1
x1 = 0.5977 | 788.6 ± 0.3 | 1.44003 ± 0.00069 | 1184.5 ± 2.2
x1 = 0.6968 | 779.2 ± 0.3 | 1.43303 ± 0.00069 | 1174.9 ± 2.2
x1 = 0.7988 | 769.7 ± 0.3 | 1.42601 ± 0.0007 | 1165.7 ± 2.2
x1 = 0.8973 | 760.9 ± 0.3 | 1.41941 ± 0.0007 | 1157.5 ± 2.3
x1 = 0.9483 | 756.4 ± 0.3 | 1.41609 ± 0.0007 | 1153.5 ± 2.3
x1 = 1 | 752 ± 0.3 | 1.41272 ± 0.0007 | 1149.6 ± 2.3

CC1CCCCC1 [methylcyclohexane] + Cc1ccccc1
Details | mass density, [3] [kg/m3] | refractive index, [4] | speed of sound, [3] [m/s]
x1 = 0.0488 | 842.1 ± 0.2 | 1.48065 ± 0.00068 | 1233.3 ± 2.1
x1 = 0.0977 | 836.1 ± 0.2 | 1.4763 ± 0.00068 | 1226 ± 2.1
x1 = 0.1967 | 824.6 ± 0.2 | 1.4675 ± 0.00068 | 1212.4 ± 2.1
x1 = 0.2969 | 813.6 ± 0.3 | 1.45909 ± 0.00068 | 1200.1 ± 2.1
x1 = 0.3751 | 805.5 ± 0.3 | 1.45314 ± 0.00068 | 1191.7 ± 2.1
x1 = 0.5049 | 792.7 ± 0.3 | 1.44348 ± 0.00069 | 1179.2 ± 2.1
x1 = 0.5986 | 784 ± 0.3 | 1.43702 ± 0.00069 | 1171.5 ± 2.2
x1 = 0.7022 | 774.9 ± 0.3 | 1.43008 ± 0.00069 | 1164 ± 2.2
x1 = 0.8016 | 766.8 ± 0.3 | 1.42397 ± 0.0007 | 1158.1 ± 2.2
x1 = 0.9003 | 759.1 ± 0.3 | 1.41817 ± 0.0007 | 1153.2 ± 2.3
x1 = 0.9487 | 755.5 ± 0.3 | 1.41549 ± 0.0007 | 1151.2 ± 2.3
x1 = 1 | 752 ± 0.3 | 1.41272 ± 0.0007 | 1149.6 ± 2.3

CC1CCCCC1 [methylcyclohexane] + c1ccccc1
Details | mass density, [3] [kg/m3] | refractive index, [4] | speed of sound, [3] [m/s]
x1 = 0.0486 | 849.3 ± 0.3 | 1.48201 ± 0.00068 | 1220.3 ± 2.1
x1 = 0.0982 | 841.3 ± 0.2 | 1.47621 ± 0.00068 | 1211.2 ± 2.1
x1 = 0.1995 | 826.7 ± 0.3 | 1.46566 ± 0.00068 | 1195.3 ± 2.1
x1 = 0.2999 | 813.5 ± 0.3 | 1.45619 ± 0.00068 | 1182.5 ± 2.1
x1 = 0.4038 | 801.3 ± 0.3 | 1.44745 ± 0.00068 | 1172 ± 2.1
x1 = 0.4998 | 791.3 ± 0.3 | 1.44043 ± 0.00069 | 1164.6 ± 2.1
x1 = 0.612 | 780.7 ± 0.3 | 1.43297 ± 0.00069 | 1158.1 ± 2.2
x1 = 0.7053 | 772.6 ± 0.3 | 1.42729 ± 0.00069 | 1154.2 ± 2.2
x1 = 0.7994 | 765.3 ± 0.3 | 1.42214 ± 0.0007 | 1151.5 ± 2.2
x1 = 0.8991 | 758.4 ± 0.3 | 1.41728 ± 0.0007 | 1149.9 ± 2.3
x1 = 0.953 | 754.8 ± 0.3 | 1.4148 ± 0.0007 | 1149.5 ± 2.3
x1 = 1 | 752 ± 0.3 | 1.41272 ± 0.0007 | 1149.6 ± 2.3

Cc1ccccc1 [toluene]
[1]
Details | refractive index
298.15 K | 1.49399 ± 0.00068
313.15 K | 1.48509 ± 0.00068

[2]
Details | mass density, 298.15 K [kg/m3] | mass density, 313.15 K [kg/m3] | speed of sound, 313.15 K [m/s]
101 kPa | – | 848.2 ± 0.2 | 1240.9 ± 2.1
101.33 kPa | 862.1 ± 0.2 | – | –

Cc1ccccc1 [toluene] + C1CCCC1
x2 = 0
Details | mass density [kg/m3] | refractive index | speed of sound [m/s]
[3] | 848.2 ± 0.2 | – | 1240.9 ± 2.1
[4] | – | 1.48509 ± 0.00068 | –

Cc1ccccc1 [toluene] + C1CCCCC1
x2 = 0
Details | mass density [kg/m3] | refractive index | speed of sound [m/s]
[3] | 848.2 ± 0.2 | – | 1240.9 ± 2.1
[4] | – | 1.48509 ± 0.00068 | –

Cc1ccccc1 [toluene] + CC1CCCCC1
x2 = 0
Details | mass density [kg/m3] | refractive index | speed of sound [m/s]
[3] | 848.2 ± 0.2 | – | 1240.9 ± 2.1
[4] | – | 1.48509 ± 0.00068 | –
